Reference: doi:10.1101/2023.11.15.567208 (bioRxiv, 2024)

What was measured:
[1] = target: T1, Substance P receptor (NKR1) (Mus musculus, UniProt P30548); test: Co-culture of DRG neurons with Substance P-sniffer cells, capsaicin-evoked Substance P release; assay type: cell-based; conditions: exogenous Substance P (10 nM); co-culture with WT or DKO DRG
T1 construct: T2A self-cleaving peptide remnant (from the polycistronic P2A-TACR1-T2A cassette) (C); expressed in transfected cells; host or cells: Flp-In T-REx HEK293 (Thermo Fisher Scientific, R78007), lentiviral transduction, hygromycin selection

[2] = target: T2, CGRP receptor (Calcrl and Ramp1) (Mus musculus, UniProt Q9R1W5+Q9WTJ5); test: CGRP-sniffer HEK293 cells, calcium (GCaMP6s) dose-response; assay type: cell-based; conditions: selectivity control; HEK293 expressing Calcrl, Ramp1, GCaMP6s and Gα15
T2 construct: expressed in transfected cells; host or cells: HEK293; Calcrl/Gα15/GCaMP6s by PiggyBac transposase (puromycin), Ramp1 by pSBbi-Neo-cmv-TETo2-RAMP1 IRES-mTagBFP2-NLS (geneticin); doxycycline-induced
Text: The copyright holder for this preprint
(1 picture or pasted object on this page, not shown here)

[3] = ref von Euler and Gaddum, 1931 (Substance P); Amara et al., 1982 (CGRPα); cited from earlier work
Text: Among the most challenging diseases to treat is chronic pain. With over 20% of the population suffering from chronic pain, we urgently need to find new analgesic targets ([Nahin et al., 2023]).

[4] = ref Hylden and Wilcox, 1981, Malick and Goldstein, 1978, cited from earlier work
Text: Alternatively, neuropeptides may have opposing effects in different parts of the circuitry meaning global loss of the gene may produce a net effect of no change in a particular behavior.

T2 sequence (Q9R1W5 23-463): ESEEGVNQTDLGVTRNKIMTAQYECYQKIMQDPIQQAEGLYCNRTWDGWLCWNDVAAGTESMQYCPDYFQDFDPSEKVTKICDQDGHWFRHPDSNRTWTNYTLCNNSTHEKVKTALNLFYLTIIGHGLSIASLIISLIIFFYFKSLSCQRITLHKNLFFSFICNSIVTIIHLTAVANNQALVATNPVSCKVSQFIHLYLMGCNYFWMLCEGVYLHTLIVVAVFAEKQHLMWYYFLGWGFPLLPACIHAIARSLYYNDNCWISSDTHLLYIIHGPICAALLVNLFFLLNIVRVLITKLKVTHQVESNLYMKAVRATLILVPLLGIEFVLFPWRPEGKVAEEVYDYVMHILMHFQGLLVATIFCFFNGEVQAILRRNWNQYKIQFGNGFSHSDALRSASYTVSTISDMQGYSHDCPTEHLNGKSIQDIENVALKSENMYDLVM
T2 sequence (Q9WTJ5 27-148): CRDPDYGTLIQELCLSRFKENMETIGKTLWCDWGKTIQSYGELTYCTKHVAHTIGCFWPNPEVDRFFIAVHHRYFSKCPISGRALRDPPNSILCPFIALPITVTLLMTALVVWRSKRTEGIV
T1 sequence (P30548 whole entry): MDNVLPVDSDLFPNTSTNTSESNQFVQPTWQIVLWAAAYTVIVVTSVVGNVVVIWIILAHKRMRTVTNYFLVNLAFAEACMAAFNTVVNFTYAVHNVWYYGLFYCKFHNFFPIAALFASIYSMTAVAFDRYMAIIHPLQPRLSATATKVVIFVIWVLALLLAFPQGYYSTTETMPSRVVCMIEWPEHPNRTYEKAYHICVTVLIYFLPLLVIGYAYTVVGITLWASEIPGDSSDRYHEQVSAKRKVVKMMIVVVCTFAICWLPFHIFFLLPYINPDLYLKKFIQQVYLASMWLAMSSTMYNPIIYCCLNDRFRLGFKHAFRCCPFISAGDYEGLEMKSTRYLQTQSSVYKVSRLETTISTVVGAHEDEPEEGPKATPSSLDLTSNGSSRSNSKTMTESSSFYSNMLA

Substance P: 11-amino acid peptide first discovered as a tissue extract with contractile activity
Substance P-sniffer activation by exogenous peptide [1]: activates Substance P-sniffers in both conditions | Sensitivity of CGRP-sniffer cells [2]: insensitive | Contractile or vasodilator activity [3]: contractile activity | Effect in the brain ([4]; in the brain): analgesic | Effect of infusion into the spinal cord ([4]; infusion into the spinal cord): elicits pain
